The source made the active and inactive calls. No cut-off for these calls is given here.
Assays:
SW1990 [1] = test: Induction of cell cycle arrest at S phase in human SW1990 cells at 2 uM incubated for 6 days by PI staining based flow cytometry (reference value: 21.20 %); assay type: functional; conditions: time 6 day
SW1990 [2] = test: Induction of cell cycle arrest at G2/M phase in human SW1990 cells at 2 uM incubated for 6 days by PI staining based flow cytometry (reference value: 29.15 %); assay type: functional; conditions: time 6 day
SW1990 [3] = test: Inhibition of cell invasion in human SW1990 cells at 0.5 to 2 uM by transwell assay; assay type: functional, cell-based; conditions: dose 0.5-2 µM
SW1990 [4] = test: Inhibition of cell migration in human SW1990 cells at 0.5 to 2 uM by transwell assay; assay type: functional, cell-based; conditions: dose 0.5-2 µM
SW1990 [5] = test: Downregulation of N-cadherin level in human SW1990 cells at 0.5 to 2 uM by Western blot analysis; assay type: functional, cell-based; conditions: dose 0.5-2 µM
SW1990 [6] = test: Downregulation of Snail level in human SW1990 cells at 0.5 to 2 uM by Western blot analysis; assay type: functional, cell-based; conditions: dose 0.5-2 µM
SW1990 [7] = test: Upregulation of E-cadherin level in human SW1990 cells at 0.5 to 2 uM by Western blot analysis; assay type: functional, cell-based; conditions: dose 0.5-2 µM
SW1990 [8] = test: Antitumor activity in human SW1990 cells assessed as decrease in CD133 level at 0.5 to 2 uM by immunofluorescence based analysis; assay type: functional, cell-based; conditions: dose 0.5-2 µM
SW1990 [9] = test: Antitumor activity in human SW1990 cells assessed as decrease in CD44 level at 0.5 to 2 uM by immunofluorescence based analysis; assay type: functional, cell-based; conditions: dose 0.5-2 µM
[10] = Metabolic stability in mouse liver microsomes assessed as half life at 1 uM preincubated for 10 mins followed by NADPH measured for 60 mins by LC-MS/MS analysis; assay type: ADME, Microsome; conditions: time 70 min
[11] = Metabolic stability in mouse liver microsomes assessed as intrinsic clearance at 1 uM preincubated for 10 mins followed by NADPH measured for 60 mins by LC-MS/MS analysis; assay type: ADME, Microsome; conditions: time 70 min, read-out: CLH
SW1990 [12] = test: Antitumor activity against human SW1990 cells xenografted in BALB/c nude mouse model assessed as tumor growth inhibition treated intraperitoneally for 21 days consecutively; assay type: functional; conditions: dose 30-60 mg/kg, route ip, time 21.0 day
[13] = Toxicity in BALB/c nude mouse xenografted with human SW1990 cells assessed as drug tolerance at 30 to 60 mg/kg, ip for 21 days consecutively; assay type: organism-based; conditions: in vivo, 504 h, dose 30-60 mg/kg, time 21 day
[14] = Toxicity in BALB/c nude mouse xenografted with human SW1990 cells assessed as animal mortality at 30 to 60 mg/kg, ip for 21 days consecutively; assay type: organism-based; conditions: in vivo, 504 h, dose 30-60 mg/kg, time 21 day
SW1990 [15] = test: Antitumor activity against human SW1990 cells xenografted in BALB/c nude mouse model assessed as tumor growth inhibition at 60 mg/kg, ip for 21 days consecutively relative to control; assay type: functional; conditions: SW1990, 504 h, time 21 day, read-out: TGI
[16] = Toxicity in BALB/c nude mouse xenografted with human SW1990 cells assessed as change in body weight at 30 to 60 mg/kg, ip for 21 days consecutively; assay type: organism-based; conditions: in vivo, 504 h, dose 30-60 mg/kg, time 21 day
SW1990 [17] = test: Antitumor activity against human SW1990 cells xenografted in BALB/c nude mouse model assessed as change in cell contraction treated intraperitoneally for 21 days consecutively by H and E staining based analysis; assay type: functional; conditions: dose 30-60 mg/kg, route ip, time 21.0 day
SW1990 [18] = test: Antitumor activity against human SW1990 cells xenografted in BALB/c nude mouse model assessed as change in agglutination treated intraperitoneally for 21 days consecutively by H and E staining based analysis; assay type: functional; conditions: dose 30-60 mg/kg, route ip, time 21.0 day
SW1990 [19] = test: Antitumor activity against human SW1990 cells xenografted in BALB/c nude mouse model assessed as change in nuclear chromatin marginalization treated intraperitoneally for 21 days consecutively by H and E staining based analysis; assay type: functional; conditions: dose 30-60 mg/kg, route ip, time 21.0 day
SW1990 [20] = test: Antitumor activity against human SW1990 cells xenografted in BALB/c nude mouse model assessed as decrease in N-cadherin level at 30 to 60 mg/kg, ip for 21 days consecutively by Western blot analysis; assay type: functional, organism-based; conditions: dose 30-60 mg/kg, time 21.0 day
SW1990 [21] = test: Antitumor activity against human SW1990 cells xenografted in BALB/c nude mouse model assessed as decrease in Snail level at 30 to 60 mg/kg, ip for 21 days consecutively by Western blot analysis; assay type: functional, organism-based; conditions: dose 30-60 mg/kg, time 21.0 day
SW1990 [22] = test: Antitumor activity against human SW1990 cells xenografted in BALB/c nude mouse model assessed as increase in E-cadherin level at 30 to 60 mg/kg, ip for 21 days consecutively by Western blot analysis; assay type: functional, organism-based; conditions: dose 30-60 mg/kg, time 21.0 day
SW1990 [23] = test: Antitumor activity against human SW1990 cells xenografted in BALB/c nude mouse model assessed as decrease in CD133 level at 30 to 60 mg/kg, ip for 21 days consecutively by IHC analysis; assay type: functional, organism-based; conditions: dose 30-60 mg/kg, time 21.0 day
SW1990 [24] = test: Antitumor activity against human SW1990 cells xenografted in BALB/c nude mouse model assessed as decrease in CD44 level at 30 to 60 mg/kg, ip for 21 days consecutively by IHC analysis; assay type: functional, organism-based; conditions: dose 30-60 mg/kg, time 21.0 day

COc1cc(N2CCN(C)CC2)ccc1Nc1nc(Nc2ccccc2S(=O)(=O)C(C)C)c2nc[nH]c2n1
Activity (SW1990 [1]): 14.23% | Activity (SW1990 [2]): 22.63% | inhibition (SW1990 [3]): Active | inhibition (SW1990 [4]): Active | Activity (SW1990 [5]): Active | Activity (SW1990 [6]): Active | Activity (SW1990 [7]): Active | Activity (SW1990 [8]): Active | Activity (SW1990 [9]): Active | half-life at 1 µM [10]: 45.9 min | CLint scaled at 1 µM [11]: 120 mL/min/kg | microsomal CLint at 1 µM [11]: 30.2 µL/min/mg | inhibition (SW1990 [12]): Dose-Dependent Effect | Activity [13]: Non-Toxic | Activity [14]: Non-Toxic | inhibition in vivo at 60 mg/kg (SW1990 [15]): 68.6% | Activity [16]: Toxic | Activity (SW1990 [17]): Dose-Dependent Effect | Activity (SW1990 [18]): Dose-Dependent Effect | Activity (SW1990 [19]): Dose-Dependent Effect | Activity (SW1990 [20]): Active | Activity (SW1990 [21]): Active | Activity (SW1990 [22]): Active | Activity (SW1990 [23]): Active | Activity (SW1990 [24]): Active

Source: ChEMBL document CHEMBL5634144, “Design, synthesis and biological evaluation of novel DCLK1 inhibitor containing purine skeleton for the treatment of pancreatic cancer” (Eur J Med Chem, 2023)
